Experimental data reported in patent US7781565B2 (priority 2006, dated 2010).
“Also recorded” adds a separate entry of the source.

Each substance was assayed on NCI-60 cell lines.
Type: cell-based, human
For RGSPAAA, the “Cell Line the peptide is associated with (peptide recovered from phage library selection on this NCI-60 cell line)” value was “MDA-MB-435-Breast”. For RGSPLTK, the “Cell Line (NCI-60 cell line the peptide and its motif are associated with)” value was “UACC 257 Melanoma”. RGSRLPA was tested, and the “Cell Line with which the peptide (and its tripeptide motif) is associated” value (shortened to “Cell Line with which the peptide”) was “EKVX-Lung”. For RGSRTGP, the “Cell Line (NCI-60 cell line the peptide is associated with)” value was “U251 CNS”. RGSRWSS was tested, and the “Cell Line the peptide is associated with (peptide recovered from phage library selection on this NCI-60 cell line)” value was “BT-549 Breast”. In the case of RGSVASA, the “Cell Line (NCI-60 cell line the peptide is associated with)” value is reported as “HT-29 Colon”. RGSVGPS was tested, and the “Cell Line (NCI-60 cell line the peptide is associated with)” value was “SW620-Colon”. RGSVRVL was tested, and the “Cell Line with which the peptide” value was “HL-60-Leukemia”. RGSWAGV was tested, and the “Cell Line (NCI-60 cell line the peptide is associated with)” value was “HT-29 Colon”. In the case of RGSYVER, the “Cell Line the peptide is associated with (peptide recovered from phage library selection on this NCI-60 cell line)” value is reported as “BT-549 Breast”. RGVASRS was tested, and the “Cell Line with which the peptide” value was “H460-Lung”. In the case of RGVFYGK, the “Cell Line with which the peptide” value is reported as “H322-Lung”. For RGVGAKA, the “Cell Line the peptide is associated with (peptide recovered from phage library selection on this NCI-60 cell line)” value was “NCI/ADR-RES Breast”. RGVGKTK was tested, and the “Cell Line the peptide is associated with (peptide recovered from phage library selection on this NCI-60 cell line)” value was “MDA-MB-231 Breast”. For RGVGWAK, the “Cell Line with which the peptide” value was “H322-Lung”. For RGVKLGD, the “Cell Line (NCI-60 cell line the peptide is associated with)” value was “SW620-Colon”. In the case of RGVNYRS, the “Cell Line the peptide is associated with (peptide recovered from phage library selection on this NCI-60 cell line)” value is reported as “RXF393 Renal”. RGVSGRL was tested, and the “Cell Line (NCI-60 cell line the peptide and its motif are associated with)” value was “SK-MEL-28 Melanoma”. In the case of RGVSLKG, the “Cell Line with which the peptide” value is reported as “H226-Lung”. For RGVVSAK, the “Cell Line with which the peptide” value was “Hop-92-Lung”. RGVVSGV was tested, and the “Cell Line with which the peptide” value was “Hop-92-Lung”. In the case of RHFGLRE, the “Cell Line with which the peptide” value is reported as “H522-Lung”. RHGPGVL was tested, and the “Cell Line (NCI-60 cell line the peptide and its motif are associated with)” value was “OVCAR-3 Ovarian”. In the case of RHGVRSK, the “Cell Line (NCI-60 cell line the peptide is associated with)” value is reported as “SF-295 CNS”. With RIDAGGG the “Cell Line (NCI-60 cell line the peptide is associated with)” value was “SW620-Colon”. For RIFHGAV, the “Cell Line (NCI-60 cell line the peptide is associated with)” value was “SNB-19 CNS; also recorded: SF-539 CNS”. With RIGAGHR the “Cell Line (NCI-60 cell line the peptide and its motif are associated with)” value was “PC3 Prostate”. In the case of RIGAVWY, the “Cell Line (NCI-60 cell line the peptide is associated with)” value is reported as “HT-29 Colon”. In the case of RIGRVWA, the “Cell Line with which the peptide” value is reported as “Molt-4-Leukemia”. With RKEALRV the “Cell Line the peptide is associated with (peptide recovered from phage library selection on this NCI-60 cell line)” value was “CAIK-1 Renal”. In the case of RKGSGTA, the “Cell Line the peptide is associated with (peptide recovered from phage library selection on this NCI-60 cell line)” value is reported as “BT-549 Breast”. RKPGGGR was tested, and the “Cell Line (NCI-60 cell line the peptide is associated with)” value was “HT-29 Colon”. For RLAVSGY, the “Cell Line with which the peptide” value was “H522-Lung”. For RLETLLS, the “Cell Line the peptide is associated with (peptide recovered from phage library selection on this NCI-60 cell line)” value was “UO31 Renal”. For RLGSSGL, the “Cell Line the peptide is associated with (peptide recovered from phage library selection on this NCI-60 cell line)” value was “RXF393 Renal”. For RLHYLRS, the “Cell Line (NCI-60 cell line the peptide and its motif are associated with)” value was “M14 Melanoma”. RLLSAFG was tested, and the “Cell Line (NCI-60 cell line the peptide is associated with)” value was “HCT-15 Colon”. In the case of RLLSEGY, the “Cell Line (NCI-60 cell line the peptide is associated with)” value is reported as “SNB-75 CNS”. RLRAASY was tested, and the “Cell Line with which the peptide” value was “RPMI-8226-Leukemia”. With RLRLSSW the “Cell Line the peptide is associated with (peptide recovered from phage library selection on this NCI-60 cell line)” value was “TK-10 Renal”. For RLRSYVA, the “Cell Line (NCI-60 cell line the peptide and its motif are associated with)” value was 786-0 Renal. With RLRVSVR the “Cell Line the peptide is associated with (peptide recovered from phage library selection on this NCI-60 cell line)” value was “CAIK-1 Renal”. RLSALTD was tested, and the “Cell Line (NCI-60 cell line the peptide is associated with)” value was “HT-29 Colon”. For RLSGAGD, the “Cell Line (NCI-60 cell line the peptide and its motif are associated with)” value was “OVCAR-5 Ovarian”. RLSMASR was tested, and the “Cell Line the peptide is associated with (peptide recovered from phage library selection on this NCI-60 cell line)” value was “ACHN Renal”. With RLSSAPS the “Cell Line (NCI-60 cell line the peptide and its motif are associated with)” value was “M14 Melanoma”. For RLSTFAG, the “Cell Line (NCI-60 cell line the peptide is associated with)” value was “SNB-19 CNS; also recorded: SF-539 CNS”. With RLSWTVL the “Cell Line (NCI-60 cell line the peptide and its motif are associated with)” value was “PC3 Prostate”. In the case of RLWGSVV, the “Cell Line (NCI-60 cell line the peptide and its motif are associated with)” value is reported as “SK-OV-3-3 Ovarian”. For RMGFGLR, the “Cell Line (NCI-60 cell line the peptide is associated with)” value was “LOX-IMVI Melanoma”. For RMGLLRQ, the “Cell Line (NCI-60 cell line the peptide and its motif are associated with)” value was “M14 Melanoma”. For RMLVSSF, the “Cell Line (NCI-60 cell line the peptide and its motif are associated with)” value was “UACC 257 Melanoma”. In the case of RNPGRLA, the “Cell Line (NCI-60 cell line the peptide is associated with)” value is reported as “HT-29 Colon”. With RNSRAGL the “Cell Line the peptide is associated with (peptide recovered from phage library selection on this NCI-60 cell line)” value was “UO31 Renal”. In the case of RPAGGRT, the “Cell Line (NCI-60 cell line the peptide and its motif are associated with)” value is reported as “PC3 Prostate”. For RPARGAF, the “Cell Line the peptide is associated with (peptide recovered from phage library selection on this NCI-60 cell line)” value was “ACHN Renal”. In the case of RPKLRSV, the “Cell Line (NCI-60 cell line the peptide is associated with)” value is reported as “MALME-3M Melanoma”. With RPWGAVA the “Cell Line (NCI-60 cell line the peptide and its motif are associated with)” value was “SK-OV-3-3 Ovarian”. With RQDGGLY the “Cell Line (NCI-60 cell line the peptide and its motif are associated with)” value was “PC3 Prostate”. With RQKCGGL the “Cell Line (NCI-60 cell line the peptide is associated with)” value was “HT-29 Colon”. For RQLVSPA, the “Cell Line (NCI-60 cell line the peptide is associated with)” value was “HT-29 Colon”. RQTTGAV was tested, and the “Cell Line with which the peptide” value was “K-562-Leukemia”. RRAGGSV was tested, and the “Cell Line (NCI-60 cell line the peptide and its motif are associated with)” value was “OVCAR-5 Ovarian”. RRARGAC was tested, and the “Cell Line (NCI-60 cell line the peptide is associated with)” value was “SNB-75 CNS”. In the case of RRDAGRM, the “Cell Line (NCI-60 cell line the peptide is associated with)” value is reported as “SF-295 CNS”. With RRDGLVE the “Cell Line (NCI-60 cell line the peptide and its motif are associated with)” value was 786-0 Renal. With RREGLRS the “Cell Line (NCI-60 cell line the peptide and its motif are associated with)” value was “OVCAR-3 Ovarian” and the “Cell Line with which the peptide” value was “H522-Lung”. RRFWAGL was tested, and the “Cell Line with which the peptide” value was “H460-Lung”. In the case of RRGLGDA, the “Cell Line the peptide is associated with (peptide recovered from phage library selection on this NCI-60 cell line)” value is reported as “TK-10 Renal”. In the case of RRGSGGL, the “Cell Line with which the peptide” value is reported as “H23-Lung”. With RRGSLMF the “Cell Line (NCI-60 cell line the peptide is associated with)” value was “SW620-Colon”. With RRGSSRN the “Cell Line with which the peptide” value was “SR Leukemia”. With RRGSVAE the “Cell Line the peptide is associated with (peptide recovered from phage library selection on this NCI-60 cell line)” value was “HS 578 T Breast”. RRHGLLS was tested, and the “Cell Line with which the peptide” value was “K-562-Leukemia”. In the case of RRLSSIA, the “Cell Line the peptide is associated with (peptide recovered from phage library selection on this NCI-60 cell line)” value is reported as “TK-10 Renal”. In the case of RRLSYFH, the “Cell Line (NCI-60 cell line the peptide is associated with)” value is reported as “HT-29 Colon”. In the case of RRLSYHS, the “Cell Line (NCI-60 cell line the peptide and its motif are associated with)” value is reported as “M14 Melanoma; also recorded: OVCAR-3 Ovarian”. RRLSYRD was tested, and the “Cell Line with which the peptide” value was “RPMI-8226-Leukemia”. RRLSYRE was tested, and the “Cell Line (NCI-60 cell line the peptide and its motif are associated with)” value was “OVCAR-8 Ovarian”. In the case of RRPGLRS, the “Cell Line (NCI-60 cell line the peptide is associated with)” value is reported as “HT-29 Colon”. In the case of RRSGAGG, the “Cell Line the peptide is associated with (peptide recovered from phage library selection on this NCI-60 cell line)” value is reported as “UO31 Renal”.
